How the values were obtained:
[1] = tested on: KMS.12.BM cell line (human myeloma); experiment: KMS.12.BM Cell Viability Assay; format: cell-based; conditions: 72 h, KMS.12.BM cells, 3 days, Cell Titer-GLO, read-out: KMS cellular IC50
Protocol: Example B1: KMS.12.BM Cell Viability Assay
KMS.12.BM cell line (human myeloma) was purchased from JCRB (Osaka, Japan) and maintained in RPMI with 10% FBS culture medium. To measure the cytotoxic activity of the compounds through ATP quantitation, the KMS.12.BM cells are plated in the RPMI culture medium at 5000 cells/well/per 100 μL into a 96-well polystyrene clear black tissue culture plate (Greiner-bio-one through VWR, NJ), in the presence or absence of a concentration range of test compounds. After 3 days, […] Cell Titer-GLO Luminescent (Promega, Madison, Wis.) cell culture agent is added to each well for 10 min. at room temperature to stabilize the luminescent signal. This determines the number of viable cells in culture based on quantitation of the ATP present, which signals the presence of metabolically active cells. Luminescence is measured with the Top Count 384 (Packard Bioscience through Perkin Elmer, Boston, Mass.). Compound inhibition is determined relative to cells cultured with no drug and the IC50 reported as the compound concentration required for 50% cell death.

C-myc in KMS.12.BM cells = experiment: KMS.12.BM C-myc ELISA Assay; format: cell-based; conditions: Homo sapiens, 2 h
Protocol: KMS.12.BM C-myc ELISA Assay
KMS.12.BM cell line (human myeloma) was purchased from JCRB (Osaka, Japan) and maintained in RPMI with 10% FBS culture medium. To measure the C-myc inhibitory activity of the compounds, the KMS.12.BM cells are plated in the RPMI culture medium at 75000 cells/well/per 200 μL into a 96-well flat bottom polystyrene tissue culture plate (Corning through VWR, NJ), in the presence or absence of a concentration range of test compounds. After 2 h, cells are pelleted and lysed with Cell Extraction Buffer (BioSource, Carlsbad, Calif.) in the presence of protease inhibitors (Life Technologies, Grand Island, N.Y. and Sigma, St Louis, Mo.). Clarified lyses are tested in a C-myc commercial ELISA (Life Technologies, Grand Island, N.Y.). Compound inhibition is determined relative to cells cultured with no drug and the IC50 reported as the compound concentration required for 50% C-myc inhibition.

Row | SMILES | IC50 [1] [nM] | IC50 (C-myc in KMS.12.BM cells) [nM]
1 | Cc1noc(C)c1-c1ccc2nc(N3CCN(C(=O)C4CCC4)CC3)n3c2c1OC[C@@H]3c1ccccn1 [Example 28, (4S)-2-[4-(cyclobutylcarbonyl)piperazin-1-yl]-7-(3,5-dimethylisoxazol-4-yl)-4-pyridin-2-yl-4,5-dihydroimidazo[1,5,4-de][1,4]benzoxazine] | ≤ 100 | 100 to 1000
2 | CC(=O)N1CC2CC1CN2c1nc2ccc(-c3c(C)noc3C)c3c2n1[C@@H](c1ccccn1)CO3 (stereo partly drawn) [Example 4, (4S)-2-(5-acetyl-2,5-diazabicyclo[2.2.1]hept-2-yl)-7-(3,5-dimethylisoxazol-4-yl)-4-pyridin-2-yl-4,5-dihydroimidazo[1,5,4-de][1,4]benzoxazine] | ≤ 100 | ≤ 100
3 | Cc1noc(C)c1-c1ccc2nc(N3CCC(NC(=O)C4CC4)CC3)n3c2c1OC[C@@H]3c1ccccn1 [Example 12] | ≤ 100 | ≤ 100
4 | CCS(=O)(=O)N(C)C1CCN(c2nc3ccc(-c4c(C)noc4C)c4c3n2[C@@H](c2ccccn2)CO4)CC1 [Example 23, N-{1-[(4S)-7-(3,5-dimethylisoxazol-4-yl)-4-pyridin-2-yl-4,5-dihydroimidazo[1,5,4-de][1,4]benzoxazin-2-yl]piperidin-4-yl}-N-methylethanesulfonamide] | ≤ 100 | 100 to 1000
5 | CC(=O)N(C)C1CCN(c2nc3ccc(-c4c(C)noc4C)c4c3n2[C@@H](c2ccccn2)CO4)CC1 [Example 6, N-{1-[(4S)-7-(3,5-dimethylisoxazol-4-yl)-4-pyridin-2-yl-4,5-dihydroimidazo[1,5,4-de][1,4]benzoxazin-2-yl]piperidin-4-yl}-N-methylacetamide] | ≤ 100 | ≤ 100
6 | CCC(=O)N1CCN(c2nc3ccc(-c4c(C)noc4C)c4c3n2[C@@H](c2ccccn2)CO4)C[C@@H]1C [Example 8, (4S)-7-(3,5-dimethylisoxazol-4-yl)-2-[(3S)-3-methyl-4-propionylpiperazin-1-yl]-4-pyridin-2-yl-4,5-dihydroimidazo[1,5,4-de][1,4]benzoxazine] | ≤ 100 | ≤ 100
7 | CC(=O)N1CCN(c2nc3ccc(-c4c(C)noc4C)c4c3n2[C@@H](c2ccccn2)CO4)C[C@@H]1C [Example 7, (4S)-2-[(3S)-4-acetyl-3-methylpiperazin-1-yl]-7-(3,5-dimethylisoxazol-4-yl)-4-pyridin-2-yl-4,5-dihydroimidazo[1,5,4-de][1,4]benzoxazine] | ≤ 100 | ≤ 100

Reference: patent US10227359B2, “Tricyclic heterocycles as bet protein inhibitors” (Incyte Corporation, priority 2014, dated 2019)
